Assay results from patent publication US6787161B2, “Anti-cancer compounds” (Peplin Biotech Pty. Ltd., priority 1997, dated 2004).

Assays:
MM96L cells = test: Effect of betaines on MM96L cell numbers; format: cell-based, human; design: key to cell numbers rating and morphology: +++ = no effect; − = complete cell death; *d = indicates change to dendritic morphology of the cells; conditions: 4 days
Experimental: Betaines of different types were solubilised in sterile MilliQ™ water to a final concentration of 1 mg/ml, and diluted into 0.1 ml tissue culture medium containing 5000 MM96L cells as described previously. Cells were scored after 4 days incubation.

MM96L melanoma cell line = test: MM96L assay of chromatographic fractions (cell inhibition, reversion to dendritic appearance); format: cell-based, human; conditions: at 1 in 5×10^6 dilution
Experimental: Fractions were dried by vacuum centrifugation, reconstituted in 500 μl PBS, and assayed against MM96L cells and in the metallothionein reporter assay as described above. Fractions 13 to 28 all induced complete reversion of MM96L cells to a dendritic appearance, but cell death was not observed. The effect was much more striking in the reporter assay, in which activity was still observed at a dilution of 1/10,000 (i.e. at a final concentration in the culture of 1/100,000).
Fractions 14 and 15 from the HPLC subfractionation described in Example 7 and FIG. 3 were further purified by repeated chromatography, selecting the dominant symmetrical peak with constant diode array spectra (e.g. fractions 14 and 15; results for fraction 14 are shown in FIGS. 4 and 5). Activity of the purified fractions in causing reversion of MM96L to the dendritic appearance was confirmed by cell assay.
(a) The ether-soluble fraction, prepared as in Example 7, was reconstituted in ethylene glycol dimethyl ether (DME) and chromatographed on 20×20 cm silica gel plates, using chloroform:ethyl acetate (82:18) as the developing solvent (FIG. 7). The plate was viewed on a UV light box and the UV positive bands were identified, excised from the gel, eluted with DME, and tested for inhibitory activity and morphology reversal against MM96L melanoma cell line. […]

Molecule | cell numbers rating and morphology (MM96L cells; dilution 1/50 of 1 mg/ml) | cell numbers rating and morphology (MM96L cells; dilution 1/500 of 1 mg/ml) | cell numbers rating and morphology (MM96L cells; dilution 1/5,000 of 1 mg/ml) | final concentration active in reversion to complete dendritic morphology (MM96L melanoma cell line) [ng/ml] | final concentration at which cell numbers were depressed or inhibited (MM96L cells) [µg/mL]
CN1CCC[C@H]1C(=O)O [N-methyl proline, free base, N-methyl proline] | +++ | +++ | +++ |  | 
CN1C[C@@H](O)C[C@@H]1C(=O)O [t-4-hydroxy N-methyl proline, free base, t-4-hydroxy N-methyl proline] | +++ | +++ | +++ |  | 
CN1CC[C@@H](O)[C@@H]1C(=O)O [t-3-hydroxy N-methyl proline, free base, t-3-hydroxy N-methyl proline] | +++ | +++ | +++ |  | 
20-acetyl-ingenol-3-angelate |  |  |  | 1 | 
C[N+](C)(C)CC(=O)[O-] [glycine betaine] | +++ | +++ | +++ |  | 
C[N+]1(C)CCC[C@H]1C(=O)[O-] [stachydrine (proline betaine), free base, stachydrine (proline betaine)] | +++ | +++ | +++ |  | 
C[N+]1(C)C[C@H](O)C[C@H]1C(=O)[O-] [t-4 hydroxy N,N-dimethyl proline] | +pd | +++ | +++ |  | 20
C[N+](C)(C)CCC(=O)O.[Cl-] [β-alanine betaine hydrochloride] | ++d | +++ | +++ |  | 20
